Holding throughout (assay): NCI tumour cell line growth inhibition, 48 h
Experiment [1] concerns SK-MEL-28 melanoma.
The test system of experiment [2] is OVCAR-3 ovarian.
Experiment [3] deals with HT29 colon.
The subject of experiment [4] is SNB-19 CNS.
Experiment [5] concerns A498 renal.
Experiment [6] deals with IGROV1 ovarian.
Experiment [7] concerns TK-10 renal.
For experiment [8], the system named is OVCAR-4 ovarian.
For experiment [9], the system named is HCT-15 colon.
Experiment [10] has as its system OVCAR-5 ovarian.

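Five concentrations, 48 hours, 96-well plates. Here, GI50 denotes the concentration required for 50% inhibition of growth. At the TGI there is no net growth.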

Take `CN1CCC(n2[nH]c(-c3ccccc3)c(Cc3ccccc3)c2=O)CC1`: the TGI in experiment [1], in experiment [2], in experiment [3], in experiment [4], in experiment [5] and in [6] was above 100 µM each time. Moreover, the TGI in [7], in experiment [8], in experiment [9] and in experiment [10] was above 100 µM throughout.
Consider `O=[N+]([O-])c1cccc(-c2cc(-c3cc(Br)ccc3O)[nH]n2)c1`, for which the GI50 in experiment [1] was 2.88 µM; in experiment [2] it was 2.1 µM; in experiment [3] it was 3.55 µM; in [4], 3.26 µM; in experiment [5] it was 1.86 µM; in [6], 2.27 µM. Moreover, the GI50 is 2.26 µM in experiment [7], 3.45 µM in [8], 2.53 µM in experiment [9] and 3.81 µM in [10]. In addition, the TGI was 10.5 µM in experiment [1]; 5.8 µM in experiment [2]; 12 µM in [3]; 12.3 µM in experiment [4]; 8.63 µM in [5]; 7.06 µM in [6]. The TGI in [7] was 6.71 µM; in experiment [8] it was 17.3 µM; in experiment [9], 12.9 µM; in experiment [10], 14.9 µM.
Consider `O=CN1CCN(C=S)CC1`, for which the TGI in experiment [1], in experiment [2], in experiment [3], in [4], in [5] and in experiment [6] was above 100 µM in each case. Moreover, the TGI in [7], in [8], in [9] and in experiment [10] was above 100 µM throughout.
With `COc1ccc2c(c1)[C@@]1(C)CCC3c4ccc(O)cc4CCC3C1C2` (some centres undefined), the GI50 in experiment [1] was 15.2 µM; in experiment [2], 14.7 µM; in [3], 3.96 µM; in experiment [4] it was 16.2 µM; in experiment [5] it was 18.2 µM; in experiment [6], 20.6 µM. Moreover, the GI50 was 14 µM in experiment [7], 13.7 µM in [8], 12.3 µM in experiment [9] and 19 µM in experiment [10]. The TGI was determined as 30.3 µM in experiment [1]; 29.1 µM in experiment [2]; 17.5 µM in [3]; 30.7 µM in experiment [4]; 33.3 µM in [5]; 48.2 µM in experiment [6]. Also, the TGI in experiment [7] turned out to be 29 µM; in experiment [8], 28.4 µM; in [9] it was 28 µM; in experiment [10], 33.1 µM.
In the case of `NC(=O)c1c2c(cc3c(=O)c4ccccc4[nH]c13)CCCC2`, the TGI in experiment [1], in [2], in experiment [3], in [4], in experiment [5] and in [6] was above 100 µM each time. Moreover, the TGI in experiment [7], in experiment [8], in experiment [9] and in experiment [10] was above 100 µM throughout.
For the molecule `CC[C@@]1(O)C(=O)OCc2c1cc1n(c2=O)Cc2cc3c(NC(=O)CN)cccc3nc2-1`, the TGI in experiment [1] is above 100 µM; in [2], 9.34 µM; in [3] it was above 100 µM; in [4] it was above 100 µM; in experiment [5], 3.27 µM; in [6], above 100 µM. The TGI in experiment [7] is above 81.7 µM; in [8], above 100 µM; in [9], above 100 µM; in experiment [10], 63.8 µM.
Consider `Cc1ccc(C[P+](c2ccccc2)(c2ccccc2)c2ccccc2)cc1`, for which the GI50 in [1] is 0.987 µM; in experiment [2] it was 0.638 µM; in experiment [3], 0.427 µM; in experiment [4], 2.18 µM; in experiment [5], 1.84 µM; in experiment [6] it was 2.33 µM. Further, the GI50 is 1.71 µM in experiment [7], 0.768 µM in experiment [8], 11.7 µM in [9] and 1.93 µM in experiment [10]. Also, the TGI in experiment [1] is 10.6 µM; in experiment [2], 5.19 µM; in experiment [3] it was above 41.6 µM; in experiment [4] it was above 39.5 µM; in [5] it was 7.4 µM; in experiment [6], above 100 µM. In addition, the TGI is 23.4 µM in [7], above 100 µM in [8], above 73.1 µM in [9] and above 25.2 µM in experiment [10].
Turning to `COc1cc2ncn(-c3cc(OCc4ccccc4S(C)(=O)=O)c(C#N)s3)c2cc1OC`, the GI50 in experiment [1] is above 25 µM; in experiment [2], above 25 µM; in experiment [3], above 25 µM; in experiment [4] it was 15.1 µM; in experiment [5] it was above 25 µM; in experiment [6], above 25 µM. Besides, the GI50 in experiment [7], in experiment [8], in experiment [9] and in experiment [10] was above 25 µM throughout. Further, the TGI in experiment [1], in experiment [2], in [3], in experiment [4], in experiment [5] and in experiment [6] was above 25 µM throughout. The TGI in experiment [7], in experiment [8], in experiment [9] and in experiment [10] was above 25 µM throughout.
Regarding `Cc1ccc(/C(=C/C=C(C#N)C#N)Sc2ccccn2)cc1`, the GI50 is 2.08 µM in [1]; 2.09 µM in [2]; 2.89 µM in [3]; 10.1 µM in experiment [4]; 11.6 µM in experiment [5]; 4.79 µM in experiment [6]. The GI50 in [7] was 3.02 µM; in [8], 3.01 µM; in [9], 4.09 µM; in [10], 4.13 µM. In addition, the TGI in experiment [1] is 4.51 µM; in experiment [2], 8.25 µM; in experiment [3], 8.41 µM; in [4], above 45.5 µM; in experiment [5], 24 µM; in experiment [6], 17.4 µM. Further, the TGI in experiment [7] came out at 12.1 µM; in experiment [8], 11.6 µM; in experiment [9], 15.8 µM; in experiment [10], 13.9 µM.
As to `O=C(NC1(C(=O)O)CC1c1ccccc1)c1ccccc1` (centres undefined), the TGI in [1], in experiment [2], in [3], in [4], in [5] and in [6] was above 100 µM in each case. Also, the TGI in experiment [7], in [8], in [9] and in experiment [10] was above 100 µM throughout.
On to `NC1=NC(c2ccc(F)cc2)C2=C(N1)c1ccc3ccccc3c1OCC2` (centres undefined), for which the GI50 was 18.6 µM in experiment [1]; 2.73 µM in experiment [2]; 4.96 µM in experiment [3]; 16.2 µM in experiment [4]; 10.8 µM in experiment [5]; above 100 µM in experiment [6]. Besides, the GI50 is 14.5 µM in [7], above 100 µM in [8], 3.25 µM in experiment [9] and above 100 µM in experiment [10]. Moreover, the TGI in experiment [1], in experiment [2], in experiment [3], in [4], in experiment [5] and in experiment [6] was above 100 µM in each case. For the same molecule, the TGI in [7], in experiment [8], in experiment [9] and in experiment [10] was above 100 µM throughout.
Regarding `CN(C)S(=O)(=O)c1ccc(Nc2ccc(O)c3c2C(=O)c2c([N+](=O)[O-])ccc(O)c2C3=O)cc1`, the TGI in experiment [1], in experiment [2], in [3], in experiment [4], in experiment [5] and in experiment [6] was above 100 µM each time. Moreover, the TGI in experiment [7], in experiment [8], in experiment [9] and in [10] was above 100 µM throughout.
As to `COc1cc2c(cc1OCCCN1CCN(c3cc(=O)oc4c(C)c(OC)ccc34)CC1)N=C[C@@H]1CCCN1C2=O`, the GI50 in experiment [1] was 2.56 µM; in [2] it was 0.471 µM; in [3] it was 1.16 µM; in experiment [4] it was 2.52 µM; in experiment [5], 2.02 µM; in experiment [6] it was 1.57 µM. Also, the GI50 in experiment [7] is 1.67 µM; in experiment [8], 2 µM; in experiment [9], 3.06 µM; in experiment [10], 1.34 µM. The TGI in experiment [1] was 8.45 µM; in [2] it was 3.65 µM; in [4], above 100 µM; in experiment [5], 3.96 µM; in experiment [6] it was 6.05 µM; in experiment [7] it was above 100 µM. In addition, the TGI in [8] is 10.1 µM; in experiment [9], above 37.6 µM; in [10], above 100 µM.
`CC(=O)O[C@H]1CC[C@@]2(C)C(=CC[C@@H]3C2CC[C@]2(C)Nc4[nH]ncc4CC32)C1` (some centres undefined): the TGI is above 100 µM in experiment [1]; 36.5 µM in [2]; 30.6 µM in experiment [3]; above 100 µM in [5]; above 100 µM in [6]; above 100 µM in experiment [7]. Also, the TGI was 37.2 µM in experiment [8], 32.8 µM in [9] and above 100 µM in [10].
Take `Cc1c(O)c(=O)ccn1CCO`: the TGI in experiment [1], in experiment [2], in [3], in [4], in experiment [5] and in experiment [7] was above 100 µM in each case. The TGI in experiment [8], in experiment [9] and in [10] was above 100 µM each time.
On to `CC(=O)OC12CC(C)C3(O)C4C=C(C)C(=O)[C@@]4(O)CC(CO)=C[C@H]3C1C2(C)C` (some centres undefined), for which the GI50 in experiment [1] is above 1000 µM; in [2] it was above 1000 µM; in experiment [3], above 1000 µM; in experiment [4], above 1000 µM; in experiment [5], 0.346 µM; in experiment [6], above 1000 µM. Further, the GI50 in experiment [8], in experiment [9] and in [10] was above 1000 µM in each case. In addition, the TGI in experiment [1], in experiment [2], in [3], in [4], in experiment [6] and in experiment [8] was above 1000 µM throughout. The TGI in experiment [9] and in [10] was above 1000 µM in each case.
As to `CO/N=C(/COc1c(-c2ccccc2)oc2ccccc2c1=O)c1ccc(F)cc1`, the GI50 in experiment [1] is above 100 µM; in [2] it was 56.7 µM; in experiment [3], above 100 µM; in experiment [5], 61.2 µM; in experiment [6] it was 22.1 µM; in experiment [7], 27.2 µM. For the same molecule, the GI50 was 25.9 µM in experiment [8], above 100 µM in [9] and above 100 µM in [10]. Moreover, the TGI in [1] was above 100 µM; in experiment [2], above 100 µM; in experiment [3], above 100 µM; in experiment [5], above 100 µM; in [6], 90.7 µM; in [7], 95.7 µM. The TGI was 71.4 µM in [8], above 100 µM in experiment [9] and above 100 µM in experiment [10].
Consider `Cc1ccc2[nH]c(C(=O)NN3C(=O)C(C)SC34CCCCC4C)c(-c3ccccc3)c2c1` (centres undefined), for which the GI50 in [1] was 19.4 µM; in experiment [2], 14.4 µM; in experiment [3], 15.5 µM; in experiment [4], 27 µM; in experiment [5] it was 15 µM; in [7], 19.1 µM. In addition, the GI50 is 15.9 µM in [8], 18 µM in [9] and 20.3 µM in [10]. Besides, the TGI was 38.8 µM in experiment [1]; 31.7 µM in experiment [2]; 39.3 µM in experiment [3]; 77.5 µM in [4]; 32 µM in experiment [5]; 35.6 µM in [7]. Further, the TGI in experiment [8] is 36.1 µM; in [9] it was 38.5 µM; in [10], 40.3 µM.
Turning to `COc1cc2c(c(OC)c1OC)-c1ccc(SC)c(=O)cc1C(CC(=O)Oc1cccc(C#N)c1)C2` (centres undefined), the TGI in experiment [1] was above 100 µM; in experiment [2], 0.794 µM; in [3], 0.796 µM; in [4], above 100 µM; in experiment [5] it was 0.522 µM; in experiment [6] it was above 100 µM. The TGI was above 100 µM in experiment [8], 6.47 µM in experiment [9] and above 100 µM in experiment [10].
